The test concerns AMPA receptor. Kind of test: Inhibitory action on AMPA-inducing inflow of calcium into nerve cells (Fura2-AM). The test is classed as cell-based. To be noted: rat cerebral cortex nerve cells on astrocytes, 1 μM MK-801, stimulated by 2 μM AMPA, fluorescence 340/380 nm. As to the method:
The cerebral cortex was excised from the brain of a rat on day 18 after birth and treated with trypsin and DNase, whereby the cells were dispersed. The cells were allowed to float on DMEM containing 10% serum, inoculated into a culture bottle, and their astrocytes were grown. The astrocytes were re-dispersed with trypsin and inoculated onto each well on a 96-well plate. After it was confirmed that the bottom of each well was completely covered with the astrocytes after culture for 1 week, cerebral cortex nerve cells dispersed in the same manner as above were inoculated thereon. After 24 hours, the medium was exchanged with fresh one, and after culture for further 1 week, the medium was exchanged with a medium containing 1 μM MK-801.
The inflow of calcium into the cells was measured using Fura2-AM that is a calcium-sensitive fluorescent pigment. By treating the cells with a Fura2-AM-containing medium for 1 hour, Fura2-AM was incorporated into the cells, and the medium was exchanged with a Tyrode solution containing 1 μM MK-801. After a test compound was added, the cells were stimulated by 2 μM AMPA. The change in the amount of calcium flowing into the cells was measured as a change in the fluorescence intensity at wavelengths of 340/380 nm. The effect of a test compound was evaluated where the reaction caused by AMPA added to the Tyrode solution free of the test compound was used as the control.

Structures can show the parent of a compound that is named as a salt.

With `N#Cc1cccc(N2N=C(c3ccccc3)OCC2=O)c1` [Example 46, 2-Phenyl-4-(3-cyanophenyl)-4H-1,3,4-oxadiazine-5(6H)-one], the IC50 stood at 13.1 µM.

In the case of `CC(c1ccccn1)N1N=C(c2ccccc2)OCC1=O` (stereo not shown) [Example 87, 2-Phenyl-4-[1-(2-pyridyl)ethyl]-4H-1,3,4-oxadiazine-5(6H)-one hydrochloride], the IC50 was 25.4 µM. As for `O=C1COC(c2ccccc2OCCN2CCOCC2)=NN1c1ccc(F)cc1F` [Example 71, 2-{2-[2-(4-Morpholinyl)ethoxy]phenyl}-4-(2,4-difluorophenyl)-4H-1,3,4-oxadiazine-5(6H)-one hydrochloride], the IC50 worked out at 21 µM. In the case of `O=C1COC(c2ccccc2)=NN1c1ccccc1CO` [Example 41, 2-Phenyl-4-(2-hydroxymethylphenyl)-4H-1,3,4-oxadiazine-5(6H)-one] it was 53.3 µM. `O=C1COC(C2CCCCC2)=NN1c1ccccc1` [Example 22, 2-Cyclohexyl-4-phenyl-4H-1,3,4-oxadiazine-5(6H)-one]: the IC50 was determined as 67.3 µM.

Turning to `O=C1COC(c2ccccc2O)=NN1c1ccc(F)cc1F` [Example 53, 2-(2-Hydroxyphenyl)-4-(2,4-difluorophenyl)-4H-1,3,4-oxadiazine-5(6H)-one], the IC50 amounted to 1.92 µM. For the molecule `COc1ccccc1C1=NN(C2CCCCC2)C(=O)CO1` [Example 28, 2-(2-Methoxyphenyl)-4-cyclohexyl-4H-1,3,4-oxadiazine-5(6H)-one], the IC50 stood at 25.2 µM.

For the molecule `COc1ccccc1C1=NN(c2ccccc2F)C(=O)CO1` [Example 26, 2-(2-Methoxyphenyl)-4-(2-fluorophenyl)-4H-1,3,4-oxadiazine-5(6H)-one], the IC50 was determined as 10.8 µM. For `O=C1COC(c2ccccn2)=NN1c1ccccc1I` [Example 105, 2-(2-Pyridyl)-4-(2-iodophenyl)-4H-1,3,4-oxadiazine-5(6H)-one] the value was 1.9 µM; for `Cc1cccc(C2=NN(c3ccccc3)C(=O)CO2)n1` [Example 8, 2-(6-Methyl-2-pyridyl)-4-phenyl-4H-1,3,4-oxadiazine-5(6H)-one hydrochloride], 21.1 µM. For `O=C1C(O)SC(c2ccccc2)=NN1c1ccccc1` (stereo not shown) [Example 102, 2,4-Diphenyl-6-hydroxy-4-1,3,4-thiadiazine-5-one], the IC50 was 8.2 µM.

Take `O=C1COC(c2ccccc2OCc2cccnc2)=NN1c1ccccc1` [Example 58, 2-[2-(3-Pyridyl)methoxyphenyl]-4-phenyl-4H-1,3,4-oxadiazine-5(6H)-one hydrochloride]: the IC50 was found to be 14.3 µM. For `O=C1COC(c2ccncc2)=NN1c1ccccc1` [Example 94, 2-(4-Pyridyl)-4-phenyl-4H-1,3,4-oxadiazine-5(6H)-one hydrochloride] the value was 98.7 µM; for `O=C1CSC(c2ccccc2)=NN1c1ccccc1` [Example 4, 2,4-Diphenyl-4H-1,3,4-thiadiazine-5(6H)-one], 12 µM. In the case of `CN(CCOc1ccccc1C1=NN(c2ccccc2Br)C(=O)CO1)Cc1ccccc1` [Example 103, 2-{2-[2-(N-Benzyl-N-methyl)amino]ethoxyphenyl}-4-(2-bromophenyl)-4H-1,3,4-oxadiazine-5(6H)-one], the IC50 is 4.2 µM. With `O=C(Nc1ccccn1)C1=NN(c2ccccc2)C(=O)CO1` [Example 95, N-(2-Pyridyl)-[4-phenyl-4H-1,3,4-oxadiazine-5(6H)-one-2-yl]carboxamide hydrochloride], the 50% inhibitory concentration (IC50) was determined as 48.2 µM.

As for `CN(C)CCOc1ccccc1C1=NN(c2ccccc2F)C(=O)CO1` [Example 66, 2-[2-(2-Dimethylaminoethoxy)phenyl]-4-(2-fluorophenyl)-4H-1,3,4-oxadiazine-5(6H)-one hydrochloride], the IC50 is 3.54 µM. With `O=C1COC(c2ccccc2OCCN2CCOCC2)=NN1c1ccc(F)cc1` [Example 70, 2-{2-[2-(4-Morpholinyl)ethoxy]phenyl}-4-(4-fluorophenyl)-4H-1,3,4-oxadiazine-5(6H)-one hydrochloride], the IC50 came to 27.2 µM. In the case of `O=C1COC(c2ccc[nH]2)=NN1c1ccccc1` [Example 6, 2-(2-Pyrrolyl)-4-phenyl-4H-1,3,4-oxadiazine-5(6H)-one] it was 48 µM; in that of `O=C1COC(c2ccccn2)=NN1c1ccccc1Br` [Example 33, 2-(2-Pyridyl)-4-(2-bromophenyl)-4H-1,3,4-oxadiazine-5(6H)-one], 4.28 µM; in that of `O=C1COC(c2ccccc2)=NN1c1ccccc1Cl` [Example 100, 2-Phenyl-4-(2-chlorophenyl)-4H-1,3,4-oxadiazine-5(6)-one], 0.8 µM. In the case of `O=C1COC(c2ccccc2OCCN2CCCCC2)=NN1c1ccccc1` [Example 59, 2-{2-[2-(1-Piperidyl)ethoxy]phenyl}-4-phenyl-4H-1,3,4-oxadiazine-5(6H)-one] it was 8.29 µM; in that of `N#Cc1ncccc1N1N=C(c2ccccc2)OCC1=O` [Example 42, 2-Phenyl-4-(2-cyano-3-pyridyl)-4H-1,3,4-oxadiazine-5(6H)-one hydrochloride], 3.13 µM. In the case of `CNCCOc1ccccc1C1=NN(c2ccccc2Br)C(=O)CO1` [Example 104, 2-[2-(Methylamino)ethoxyphenyl]-4-(2-bromophenyl)-4H-1,3,4-oxadiazine-5(6H)-one] it was 2.7 µM; in that of `O=C1COC(c2ccccc2OCCN2CCCC2)=NN1c1ccccc1` [Example 60, 2-{2-[2-(1-Pyrrolidinyl)ethoxy]phenyl}-4-phenyl-4H-1,3,4-oxadiazine-5(6H)-one], 7.26 µM. In the case of `O=C1COC(c2ccccc2)=NN1c1ccccc1[N+](=O)[O-]` [Example 37, 2-Phenyl-4-(2-nitrophenyl)-4H-1,3,4-oxadiazine-5(6H)-one], the IC50 came to 3.94 µM. As for `O=C1COC(c2ccccc2)=NN1C1CCN(Cc2ccccc2)CC1` [Example 86, 2-Phenyl-4-(1-benzyl-4-piperidyl)-4H-1,3,4-oxadiazine-5(6H)-one hydrochloride], the IC50 was found to be 16.9 µM. In the case of `CC(c1cccnc1)N1N=C(c2ccccc2)OCC1=O` (stereo not shown) [Example 88, 2-Phenyl-4-[1-(3-pyridyl)ethyl]-4H-1,3,4-oxadiazine-5(6H)-one oxalate] it was 52.3 µM; in that of `Cn1cccc1C1=NN(c2ccccc2)C(=O)CO1` [Example 3, 2-(1-Methyl-2-pyrolyl)-4-phenyl-4H-1,3,4-oxadiazine-5(6H)-one], 33.2 µM. For `COc1ccccc1C1=NN(c2ccccc2Br)C(=O)CO1` [Example 17, 2-(2-Methoxyphenyl)-4-(2-bromophenyl)-4H-1,3,4-oxadiazine-5(6H)-one] the value was 5.83 µM; for `O=C1COC(c2cccnc2)=NN1c1ccccc1` [Example 29, 2-(3-Pyridyl)-4-phenyl-4H-1,3,4-oxadiazine-5(6H)-one hydrochloride], 43.5 µM. Turning to `O=C1COC(c2ccccc2O)=NN1c1ccccc1` [Example 49, 2-(2-Hydroxyphenyl)-4-phenyl-4H-1,3,4-oxadiazine-5(6H)-one], the IC50 came to 2.7 µM. For `N#Cc1cccnc1N1N=C(c2ccccc2)OCC1=O` [Example 40, 2-Phenyl-4-(3-cyano-2-pyridyl)-4H-1,3,4-oxadiazine-5(6H)-one hydrochloride] the value was 34.8 µM. In the case of `O=C1C(c2ccccc2)OC(c2ccccc2)=NN1c1ccccc1` (stereo not shown) [Example 108, 2,4,6-triphenyl-4H-1,3,4-oxadiazine-5-one] it was 13.2 µM.

Values taken from US6825192B1, “Heterodiazinone derivatives” (Eisai Co., Ltd., priority 1999, dated 2004).
